# Assay results from EP3515899B1, “SOLKETAL-ETHERS, PRODUCTION METHOD AND USES THEREOF” (Cepsa S.A.U., priority 2016, dated 2018).
# Experiment: Solubility of additives in diesel at 4°C (visual phase separation)
# Format: physicochemical
# Settings: for limit of addition to diesel by solubility: conclusion from Example 2
# Experimental: Tests for solubility in diesel at 4°C were performed with the effluent of the etherification of solketal with isobutylene. Table 1: Composition of the additive STBE
# Three additives were prepared each with a different STBE/SLK ratio (1/3, 1/1 and 3/1 w/w) from […] this effluent. In turn, these additives were added to the same diesel fuel in increasing proportions (2, 10, 20, 30 and 50 % wt.).
# Table 5: Results for STBE solubility in diesel at 4°C
SMILES,solubility in diesel at 4°C (60 % wt. additive in diesel),solubility in diesel at 4°C (75 % wt. additive in diesel),solubility in diesel at 4°C (80 % wt. additive in diesel),limit of addition to diesel by solubility,solubility in diesel at 4°C (0.5 % wt. additive in diesel),"state of additive in diesel (Fig 1) (2% in diesel, photograph)"
"CCC(C)(C)OCC1COC(C)(C)O1 (stereo not shown) [STAE-97, solketal-ter-amyl-ether]",S,S,S,not limited by its solubility with diesel,–,–
"CC1(C)OCC(CO)O1 (stereo not shown) [SLK, 2,2-dimethyl-4-hydroxymethyl-1,3-dioxolane, reference compound]",–,–,–,≤ 0.5 % by weight,S,phase separation
